Assay results: patent US9890146B2, “Compound having selective EP2 agonist activity” (ONO PHARMACEUTICAL CO., LTD., priority 2014, dated 2018)

Tested on: male monkey (a cynomolgus monkey)
Experiment: Intraocular pressure lowering activity after ocular instillation
Type: in vivo
Details: Primates, in Macaca fascicularis, topical, maximum rate during 24 hours after ocular instillation of 30 μL, conscious monkey; for inhibition in vivo at 10 µg/mL: administration concentration 10 μg/mL; for inhibition in vivo at 3 µg/mL: administration concentration 3 μg/mL
Description: As can be easily understood by a person skilled in the art, in an in vivo test, since regarding all test compounds, carboxylic acid which is an active body has poor corneal permeability, pharmacological action of the active body was evaluated by ocular instillation administration of a compound which had been converted into an ester such as an ethyl ester or an isopropyl ester, or an alcohol.
A test compound-containing solution (30 μL) which had been adjusted to each of various concentrations was ocular instillation-administered to the left or right eye of a male monkey (a cynomolgus monkey) under consciousness. An intraocular pressure after administration was measured with time from administration initiation to after 24 hours. Upon measurement of an intraocular pressure, a cynomolgus monkey was fixed on a monkey chair, and the monkey was anesthetized by ocular instillation-administering an ocular surface anesthetic (Benoxil eye drops 0.4% Santen Pharmaceutical Co., Ltd.). After mounting of a blepharostat (Handaya Co., Ltd.), an intraocular pressure of both eyes was measured (7 to 8 examples per group) using a pneumatic applanation flat tonometer (Model 30 Classic, REICHERT). A difference between an intraocular pressure value before the administration of a test substance and an intraocular pressure value after the administration of the test substance was calculated as an intraocular pressure lowering rate in accordance with the following equation, and the sustainability of intraocular eye lowering action was evaluated using a maximum intraocular pressure lowering rate during measurement.
The administered concentrations were determined based on the EP2 agonist activities measured by the above-mentioned method.

## OCc1csc([C@H]2CC[C@@H]3[C@@H](COc4ccc5c(c4)CCCC5)[C@@H](O)C[C@@H]3O2)n1 [10(7), (2R,4aR,5S,6S,7aS)-2-[4-(hydroxymethyl)-1,3-thiazol-2-yl]-5-[(5,6,7,8-tetrahydro-2-naphthalenyloxy)methyl]octahydrocyclopenta[b]pyran-6-ol]
  inhibition in vivo at 10 µg/mL: 41%

## CSc1cc(OC[C@@H]2[C@H]3CC[C@H](c4nc(CO)cs4)O[C@H]3C[C@@H]2O)ccc1C [10(12), (2R,4aR,5S,6S,7aS)-2-[4-(hydroxymethyl)-1,3-thiazol-2-yl]-5-{[4-methyl-3-(methylthio)phenoxy]methyl}octahydrocyclopenta[b]pyran-6-ol]
Administration concentration 0.3 μg/mL
  inhibition in vivo at 0.3 µg/mL: 33%

## CCc1ccc(OC[C@@H]2[C@H]3CC[C@H](c4nc(CO)cs4)O[C@H]3C[C@@H]2O)cc1C1CC1 [10(15), (2R,4aR,5S,6S,7aS)-5-[(3-cyclopropyl-4-ethylphenoxy)methyl]-2-[4-(hydroxymethyl)-1,3-thiazol-2-yl]octahydrocyclopenta[b]pyran-6-ol]
  inhibition in vivo at 3 µg/mL: 37%

## OCc1csc([C@H]2CC[C@@H]3[C@@H](COc4ccc5c(c4)CCCCC5)[C@@H](O)C[C@@H]3O2)n1 [10(16), (2R,4aR,5S,6S,7aS)-2-[4-(hydroxymethyl)-1,3-thiazol-2-yl]-5-[(6,7,8,9-tetrahydro-5H-benzo[7]annulen-2-yloxy)methyl]octahydrocyclopenta[b]pyran-6-ol]
  inhibition in vivo at 10 µg/mL: 45%

## CCc1ccc(OC[C@@H]2[C@H]3CC[C@H](c4nc(CO)cs4)O[C@H]3C[C@@H]2O)cc1C1CCC1 [10(17), (2R,4aR,5S,6S,7aS)-5-[(3-cyclobutyl-4-ethylphenoxy)methyl]-2-[4-(hydroxymethyl)-1,3-thiazol-2-yl]octahydrocyclopenta[b]pyran-6-ol]
Administration concentration 100 μg/mL
  inhibition in vivo at 100 µg/mL: 57%

## Cc1ccc(OC[C@@H]2[C@H]3CC[C@H](c4nc(CO)cs4)O[C@H]3C[C@@H]2O)cc1Cl [10(21), (2R,4aR,5S,6S,7aS)-5-[(3-chloro-4-methylphenoxy)methyl]-2-[4-(hydroxymethyl)-1,3-thiazol-2-yl]octahydrocyclopenta[b]pyran-6-ol]
Administration concentration 1 μg/mL
  inhibition in vivo at 1 µg/mL: 44%

## OCc1csc([C@H]2CC[C@@H]3[C@@H](COc4ccc5c(c4F)CCC5)[C@@H](O)C[C@@H]3O2)n1 [10(22), (2R,4aR,5S,6S,7aS)-5-{[(4-fluoro-2,3-dihydro-1H-inden-5-yl)oxy]methyl}-2-[4-(hydroxymethyl)-1,3-thiazol-2-yl]octahydrocyclopenta[b]pyran-6-ol]
  inhibition in vivo at 3 µg/mL: 43%

## CCc1ccc(OC[C@@H]2[C@H]3CC[C@H](c4nc(CO)cs4)O[C@H]3C[C@@H]2O)cc1CC [10(32), (2R,4aR,5S,6S,7aS)-5-[(3,4-diethylphenoxy)methyl]-2-[4-(hydroxymethyl)-1,3-thiazol-2-yl]octahydrocyclopenta[b]pyran-6-1]
  inhibition in vivo at 3 µg/mL: 41%

## OCc1csc([C@H]2CC[C@@H]3[C@@H](COc4ccc(C5CC5)c(C5CC5)c4)[C@@H](O)C[C@@H]3O2)n1 [Example 10, (2R,4aR,5S,6S,7aS)-5-[(3,4-dicyclopropylphenoxy)methyl]-2-[4-(hydroxymethyl)-1,3-thiazol-2-yl]octahydrocyclopenta[b]pyran-6-ol]
  inhibition in vivo at 10 µg/mL: 40%
